Each molecule was assayed on Bovine cardiac myofibrils (assay: In vitro model of dose-dependent myofibril ATPase modulation (AC1.4, pyruvate kinase/lactate dehydrogenase-coupled ATPase assay at pCa25)). Conditions: concentration at which ATPase activity was 1.4-fold higher than the bottom of the dose curve, mean of a minimum of two independent tests.
Assay type: biochemical
Outline: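 Detergent-skinned bovine cardiac myofibrils (typically 0.25-1.0 mg/ml) in Ca-buffered (EGTA/CaCl2) PK/LDH-coupled ATPase assay: 12 mM K-PIPES pH 6.80, 2 mM MgCl2, 1 mM ATP, 1 mM DTT, 0.5 mM NADH, 1.5 mM PEP. Hydrolysis followed at 340 nm; dose response fit to 4-parameter equation; AC1.4 is mean of ≥2 tests.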

With `O=C(N[C@@H](c1ccc(C(F)(F)F)cc1F)C1CC1)[C@H]1C[C@H]2C[C@H]2N1C(=O)c1cc(C(F)(F)F)ccn1` [Example 573, (1R,3R,5R)-N-((R)-cyclopropyl(2-fluoro-4-(trifluoromethyl)phenyl)methyl)-2-((4-(trifluoromethyl)-2-pyridinyl)carbonyl)-2-azabicyclo[3.1.0]hexane-3-carboxamide] as the molecule, how does the AC1.4 read?
Its AC1.4 is 3.224 µM.

For `N#CC1CN(S(=O)(=O)N2CCC[C@H](C(=O)N3CCC[C@@H]3C(=O)NCc3ccccc3Cl)C2)C1` [Example 574, N-(2-chlorobenzyl)-1-(((3S)-1-((3-cyano-1-azetidinyl)sulfonyl)-3-piperidinyl)carbonyl)-D-prolinamide], which AC1.4 is on record?
Its AC1.4 is 3.2325 µM.

How did the AC1.4 turn out when `CN1CC(C(NC(=O)[C@H]2C[C@H]3C[C@H]3N2C(=O)c2cccc(S(C)(=O)=O)c2)c2ccc(C(F)(F)F)cc2F)CC1=O` (stereo partly drawn) [Example 575, (1R,3R,5R)-N-((2-fluoro-4-(trifluoromethyl)phenyl)(1-methyl-5-oxopyrrolidin-3-yl)methyl)-2-(3-(methylsulfonyl)benzoyl)-2-azabicyclo[3.1.0]hexane-3-carboxamrde] was run?
The AC1.4 was 3.245 µM.

Which AC1.4 does the source give for `CS(=O)(=O)c1cccc(C(=O)N2CCOC[C@@H]2C(=O)N[C@@H](c2ccc(C(F)(F)F)cc2F)C2CC2)c1` [Example 576, (3R)-N-((R)-cyclopropyl(2-fluoro-4-(trifluoromethyl)phenyl)methyl)-4-(3-(methylsulfonyl)benzoyl)-3-morpholinecarboxamide] here?
The AC1.4 was 2.838 µM.

Which AC1.4 does the source give for `O=C(N[C@@H](c1ccc(C(F)(F)F)cc1F)C1CC1)[C@H]1CCCN1C(=O)c1cccc(C2(F)COC2)c1` [Example 577, N—((R)-cyclopropyl(2-fluoro-4-(trifluoromethyl)phenyl)methyl)-1-(3-(3-fluoro-3-oxetanyl)benzoyl)-D-prolinamide] here?
The AC1.4 was 3.2945 µM.

How did the AC1.4 turn out when `CS(=O)(=O)c1cccc(C(=O)N2CCCC[C@@H]2C(=O)N[C@@H](c2ccc(C(F)F)cc2F)C2CC2)c1` [Example 578, (2R)-N-((R)-cyclopropyl(4-(difluoromethyl)-2-fluorophenyl)methyl)-1-(3-(methylsulfonyl)benzoyl)-2-piperidinecarboxamide] was run?
Its AC1.4 is 3.3475 µM.

With `O=C(NCc1ccc(C(F)(F)F)cc1)[C@H]1CCCN1C(=O)[C@H]1CCCN(S(=O)(=O)N2CC(Oc3ccncc3)C2)C1` [Example 580, 1-(((3S)-1-((3-(4-pyridinyloxy)-1-azetidinyl)sulfonyl)-3-piperidinyl)carbonyl)-N-(4-(trifluoromethyl)benzyl)-D-prolinamide] as the molecule, how does the AC1.4 read?
Its AC1.4 is 3.3545 µM.

With `N#CC1CN(S(=O)(=O)N2CCC[C@H](C(=O)N3C[C@@H](O)C[C@@H]3C(=O)NCc3ccc(C(F)(F)F)cc3)C2)C1` [Example 581, (4S)-1-(((3S)-1-((3-cyano-1-azetidinyl)sulfonyl)-3-piperidinyl)carbonyl)-4-hydroxy-N-(4-(trifluoromethyl)benzyl)-D-prolinamide] as the molecule, how does the AC1.4 read?
Its AC1.4 is 3.364 µM.

How did the AC1.4 turn out when `O=C(NCc1ccc(C(F)(F)F)cc1)[C@H]1CCCN1C(=O)[C@H]1CCCN(S(=O)(=O)N2CC(n3cccn3)C2)C1` [Example 582, 1-(((3S)-1-((3-(1H-pyrazol-1-yl)-1-azetidinyl)sulfonyl)-3-piperidinyl)carbonyl)-N-(4-(trifluoromethyl)benzyl)-D-prolinamide] was run?
Its AC1.4 is 3.371 µM.

With `COc1cccc(CNC(=O)[C@H]2CCCN2C(=O)[C@H]2CCCN(S(=O)(=O)N3CC(C#N)C3)C2)c1Cl` [Example 583, N-(2-chloro-3-methoxybenzyl)-1-(((3S)-1-((3-cyano-1-azetidinyl)sulfonyl)-3-piperidinyl)carbonyl)-D-prolinamide] as the molecule, how does the AC1.4 read?
The AC1.4 was 3.3715 µM.

Which AC1.4 does the source give for `CN(C)c1cccc(C(=O)N2CCC[C@@H]2C(=O)N[C@@H](c2ccc(C(F)(F)F)cc2F)C2CC2)c1` [Example 584, N-((R)-cyclopropyl(2-fluoro-4-(trifluoromethyl)phenyl)methyl)-1-(3-(dimethylamino)benzoyl)-D-prolinamide] here?
Its AC1.4 is 3.397 µM.

How did the AC1.4 turn out when `COc1ccc(C(C)NC(=O)[C@H]2CCCN2C(=O)[C@H]2CCCN(S(=O)(=O)N3CC(C#N)C3)C2)cc1F` (stereo partly drawn) [Example 585, 1-(((3S)-1-((3-cyano-1-azetidinyl)sulfonyl)-3-piperidinyl)carbonyl)-N-((1R)-1-(3-fluoro-4-methoxyphenyl)ethyl)-D-prolinamide,1-(((3S)-1-((3-cyano-1-azetidinyl)sulfonyl)-3-piperidinyl)carbonyl)-N-((1S)-1-(3-fluoro-4-methoxyphenyl)ethyl)-D-prolinamide] was run?
Its AC1.4 is 3.413 µM.

How did the AC1.4 turn out when `N#C[C@H]1C[C@H](S(=O)(=O)N2CCC[C@H](C(=O)N3CCC[C@@H]3C(=O)NCc3ccc(C(F)(F)F)cc3)C2)C1` [Example 587, 1-(((3S)-1-((trans-3-cyanocyclobutyl)sulfonyl)-3-piperidinyl)carbonyl)-N-(4-(trifluoromethyl)benzyl)-D-prolinamide] was run?
Its AC1.4 is 3.4385 µM.

How did the AC1.4 turn out when `CS(=O)(=O)c1cccc(C(=O)N2CC[C@@H](F)[C@@H]2C(=O)N[C@@H](c2ccc(C(F)(F)F)cc2F)C2CC2)c1` [Example 589, (3R)-N-((R)-cyclopropyl(2-fluoro-4-(trifluoromethyl)phenyl)methyl)-3-fluoro-1-(3-(methylsulfonyl)benzoyl)-D-prolinamide] was run?
The AC1.4 was 2.881 µM.

Which AC1.4 does the source give for `N#CC1CN(S(=O)(=O)N2CCC[C@H](C(=O)N3CCC[C@@H]3C(=O)NCC3CCC(C(F)(F)F)CC3)C2)C1` (stereo partly drawn) [Example 590, 1-(((3S)-1-((3-cyano-1-azetidinyl)sulfonyl)-3-piperidinyl)carbonyl)-N-((cis-4-(trifluoromethyl)cyclohexyl)methyl)-D-prolinamide,1-(((3S)-1-((3-cyano-1-azetidinyl)sulfonyl)-3-piperidinyl)carbonyl)-N-((4-(trifluoromethyl)cyclohexyl)methyl)-D-prolinamide] here?
Its AC1.4 is 3.4675 µM.

With `COc1ccc(CNC(=O)[C@H]2CCCN2C(=O)[C@H]2CCCN(S(=O)(=O)N3CC(C#N)C3)C2)cc1Cl` [Example 591, N-(3-chloro-4-methoxybenzyl)-1-(((3S)-1-((3-cyano-1-azetidinyl)sulfonyl)-3-piperidinyl)carbonyl)-D-prolinamide] as the molecule, how does the AC1.4 read?
The AC1.4 was 3.476 µM.

Which AC1.4 does the source give for `Cc1cc(C(C)NC(=O)[C@H]2CCCN2C(=O)[C@H]2CCCN(S(=O)(=O)N3CC(C#N)C3)C2)ccc1F` (stereo partly drawn) [Example 592, (2R)-1-((S)-1-((3-cyanoazetidin-1-yl)sulfonyl)piperidine-3-carbonyl)-N-(1-(4-fluoro-3-methylphenyl)ethyl)pyrrolidine-2-carboxamide] here?
Its AC1.4 is 3.477 µM.

For `O=C(N[C@@H](c1cc(F)c(C(F)(F)F)cc1F)C1CC1)[C@H]1C[C@H]2C[C@H]2N1C(=O)c1cc(C2CC2)ccn1` [Example 593, (1R,3R,5R)-N-((R)-cyclopropyl(2,5-difluoro-4-(trifluoromethyl)phenyl)methyl)-2-((4-cyclopropyl-2-pyridinyl)carbonyl)-2-azabicyclo[3.1.0]hexane-3-carboxamide], which AC1.4 is on record?
The AC1.4 was 3.49 µM.

For `CC(NC(=O)[C@H]1CCCN1C(=O)[C@H]1CCCN(S(=O)(=O)N2CC(C#N)C2)C1)c1ccc(OC(F)F)cc1` (stereo partly drawn) [Example 594, (2R)-1-((S)-1-((3-cyanoazetidin-1-yl)sulfonyl)piperidine-3-carbonyl)-N-(1-(4-(difluoromethoxy)phenyl)ethyl)pyrrolidine-2-carboxamide], which AC1.4 is on record?
The AC1.4 was 3.505 µM.

For `C[C@@H](NC(=O)[C@H]1CCCN1C(=O)c1cccc(S(=O)(=O)N2CC3(CC3)C2)c1)c1ccc(Cl)cc1` [Example 595, 1-((3-(5-azaspiro[2.3]hex-5-ylsulfonyl)phenyl)carbonyl)-N-((1R)-1-(4-chlorophenyl)ethyl)-D-prolinamide], which AC1.4 is on record?
Its AC1.4 is 3.5165 µM.

For `CS(=O)(=O)c1cccc(C(=O)N2[C@@H](C(=O)N[C@@H](c3ccc(C(F)(F)F)cc3)C3CC3)C[C@H]3C[C@H]32)c1` [Example 596, (1R,3R,5R)-N-((R)-cyclopropyl(4-(trifluoromethyl)phenyl)methyl)-2-(3-(methylsulfonyl)benzoyl)-2-azabicyclo[3.1.0]hexane-3-carboxamide], which AC1.4 is on record?
Its AC1.4 is 2.9335 µM.

With `C[C@@H](NC(=O)[C@H]1CCCN1C(=O)[C@H]1CCCN(S(=O)(=O)N2CC(C)(O)C2)C1)c1ccc(C(F)(F)F)cc1F` [Example 597, N-((1R)-1-(2-fluoro-4-(trifluoromethyl)phenyl)ethyl)-1-(((3S)-1-((3-hydroxy-3-methyl-1-azetidinyl)sulfonyl)-3-piperidinyl)carbonyl)-D-prolinamide] as the molecule, how does the AC1.4 read?
Its AC1.4 is 3.5295 µM.

Which AC1.4 does the source give for `CS(=O)(=O)c1cncc(C(=O)N2[C@@H](C(=O)N[C@@H](c3cc(F)c(C(F)(F)F)cc3F)C3CC3)C[C@@H]3C[C@@H]32)c1` [Example 598, (1S,3R,5S)-N-((R)-cyclopropyl(2,5-difluoro-4-(trifluoromethyl)phenyl)methyl)-2-((5-(methylsulfonyl)-3-pyridinyl)carbonyl)-2-azabicyclo[3.1.0]hexane-3-carboxamide] here?
Its AC1.4 is 3.0525 µM.

With `O=C(N[C@@H](c1ccc(C(F)(F)F)cc1F)C1CC1)[C@H]1C[C@H](F)CN1C(=O)c1cccc(C2(F)COC2)c1` [Example 599, (4S)-N-((R)-cyclopropyl(2-fluoro-4-(trifluoromethyl)phenyl)methyl)-4-fluoro-1-(3-(3-fluoro-3-oxetanyl)benzoyl)-D-prolinamide] as the molecule, how does the AC1.4 read?
The AC1.4 was 3.5615 µM.

Which AC1.4 does the source give for `Cc1ccnc(C(=O)N2[C@@H](C(=O)N[C@@H](c3cc(F)c(Cl)cc3F)C3COC3)C[C@H]3C[C@H]32)c1` [Example 600, (1R,3R,5R)-N-((R)-(4-chloro-2,5-difluorophenyl)(3-oxetanyl)methyl)-2-((4-methyl-2-pyridinyl)carbonyl)-2-azabicyclo[3.1.0]hexane-3-carboxamide] here?
The AC1.4 was 3.6113 µM.

For `CC(O)C(NC(=O)[C@H]1C[C@H]2C[C@H]2N1C(=O)c1cccc(S(C)(=O)=O)c1)c1ccc(C(F)(F)F)cc1F` (stereo partly drawn) [Example 601, (1R,3R,5R)-N-(1-(2-fluoro-4-(trifluoromethyl)phenyl)-2-hydroxypropyl)-2-(3-(methylsulfonyl)benzoyl)-2-azabicyclo[3.1.0]hexane-3-carboxamide], which AC1.4 is on record?
Its AC1.4 is 3.276 µM.
